Tests used:
[1] = biological target: T1, Rat TRPA1 expressing CHO cells (Rattus norvegicus, UniProt Q6RI86); test: 45Calcium uptake assay, inhibition of AITC induced calcium uptake (rat); assay type: cell-based; conditions: rat TRPA1 CHO cells, AITC 10 μM; for IC50: read-out: Rat IC50 value (Range); for inhibition at 1 µM: compound 1.0 μM, read-out: Percentage inhibition at 1.0 μM; for inhibition at 10 µM: compound 10.0 μM, read-out: Percentage inhibition at 10.0 μM
T1 construct: expressed in transfected cells; host or cells: CHO cells (Zeocin selection)
T1 sequence (Q6RI86 whole entry): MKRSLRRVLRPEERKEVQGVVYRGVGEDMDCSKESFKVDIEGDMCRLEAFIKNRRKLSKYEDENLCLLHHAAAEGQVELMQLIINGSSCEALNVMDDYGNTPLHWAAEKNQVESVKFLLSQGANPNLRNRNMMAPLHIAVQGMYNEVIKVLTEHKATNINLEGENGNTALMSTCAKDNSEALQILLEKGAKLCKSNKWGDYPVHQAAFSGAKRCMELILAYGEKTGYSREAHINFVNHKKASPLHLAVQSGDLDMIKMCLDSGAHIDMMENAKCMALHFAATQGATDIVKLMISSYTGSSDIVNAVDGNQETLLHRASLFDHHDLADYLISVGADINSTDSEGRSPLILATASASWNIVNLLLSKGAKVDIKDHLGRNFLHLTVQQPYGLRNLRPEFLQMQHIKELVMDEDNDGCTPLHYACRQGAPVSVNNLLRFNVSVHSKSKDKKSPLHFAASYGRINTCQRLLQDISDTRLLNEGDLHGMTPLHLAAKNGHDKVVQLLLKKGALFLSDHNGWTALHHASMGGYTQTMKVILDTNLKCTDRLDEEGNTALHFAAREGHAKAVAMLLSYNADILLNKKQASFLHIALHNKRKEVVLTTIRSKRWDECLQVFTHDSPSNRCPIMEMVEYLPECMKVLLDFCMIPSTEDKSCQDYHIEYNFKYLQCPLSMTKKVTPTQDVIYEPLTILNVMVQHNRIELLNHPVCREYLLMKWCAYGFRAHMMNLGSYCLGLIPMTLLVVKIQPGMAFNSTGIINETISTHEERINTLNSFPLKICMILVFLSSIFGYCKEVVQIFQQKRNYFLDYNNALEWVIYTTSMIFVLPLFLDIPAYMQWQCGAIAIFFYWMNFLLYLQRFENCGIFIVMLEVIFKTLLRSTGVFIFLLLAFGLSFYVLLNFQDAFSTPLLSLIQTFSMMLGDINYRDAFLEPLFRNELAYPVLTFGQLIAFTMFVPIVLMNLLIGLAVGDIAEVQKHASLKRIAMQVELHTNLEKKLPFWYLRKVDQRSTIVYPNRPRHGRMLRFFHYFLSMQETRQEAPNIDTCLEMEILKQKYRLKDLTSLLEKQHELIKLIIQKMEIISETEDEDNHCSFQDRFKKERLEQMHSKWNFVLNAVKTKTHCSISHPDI
Procedure: (§1) Screening for TRPA1 Antagonist Using the ^45Calcium Uptake Assay:
(§2) The inhibition of TRPA1 receptor activation was measured as inhibition of allyl isothiocyanate (AITC) induced cellular uptake of radioactive calcium.
(§3) Test compounds were dissolved in 100% DMSO to prepare 10 mM stock and then diluted using plain medium with 0.1% BSA and 1.8 mM CaCl2 to get the desired concentration. The final concentration of DMSO in the reaction was 0.5% (v/v). […] Rat TRPA1 expressing CHO cells were grown in F-12 DMEM medium with 10% FBS, 1% penicillin-streptomycin solution, and 400 μg/ml of Zeocin. […] Cells were treated with the test compounds for 10 minutes followed by the addition of AITC at a final concentration of 30 μM (for human TRPA1) and/or 10 μM (for rat TRPA1) and 5 μCi/ml ^45Ca^+2 for 3 minutes. Cells were washed and lysed using a buffer containing 1% Triton X-100, 0.1% deoxycholate and 0.1% SDS. Radioactivity in the lysate was measured in a Packard TopCount after addition of liquid scintillant.
(§4) Concentration response curves were plotted as a % of maximal response obtained in the absence of test antagonist. IC50 values can be calculated from concentration response curve by nonlinear regression analysis using GraphPad PRISM software.

[2] = biological target: T2, Human TRPA1 expressing CHO cells (Homo sapiens, UniProt O75762); test: 45Calcium uptake assay, inhibition of AITC induced calcium uptake (human); assay type: cell-based; conditions: human TRPA1 CHO cells, AITC 30 μM; for inhibition at 1 µM: compound 1.0 μM, read-out: Percentage inhibition at 1.0 μM; for inhibition at 10 µM: compound 10.0 μM, read-out: Percentage inhibition at 10.0 μM; for IC50: read-out: Human IC50 value (Range)
T2 construct: expressed in transfected cells; host or cells: CHO cells (G-418 selection)
T2 sequence (O75762 whole entry): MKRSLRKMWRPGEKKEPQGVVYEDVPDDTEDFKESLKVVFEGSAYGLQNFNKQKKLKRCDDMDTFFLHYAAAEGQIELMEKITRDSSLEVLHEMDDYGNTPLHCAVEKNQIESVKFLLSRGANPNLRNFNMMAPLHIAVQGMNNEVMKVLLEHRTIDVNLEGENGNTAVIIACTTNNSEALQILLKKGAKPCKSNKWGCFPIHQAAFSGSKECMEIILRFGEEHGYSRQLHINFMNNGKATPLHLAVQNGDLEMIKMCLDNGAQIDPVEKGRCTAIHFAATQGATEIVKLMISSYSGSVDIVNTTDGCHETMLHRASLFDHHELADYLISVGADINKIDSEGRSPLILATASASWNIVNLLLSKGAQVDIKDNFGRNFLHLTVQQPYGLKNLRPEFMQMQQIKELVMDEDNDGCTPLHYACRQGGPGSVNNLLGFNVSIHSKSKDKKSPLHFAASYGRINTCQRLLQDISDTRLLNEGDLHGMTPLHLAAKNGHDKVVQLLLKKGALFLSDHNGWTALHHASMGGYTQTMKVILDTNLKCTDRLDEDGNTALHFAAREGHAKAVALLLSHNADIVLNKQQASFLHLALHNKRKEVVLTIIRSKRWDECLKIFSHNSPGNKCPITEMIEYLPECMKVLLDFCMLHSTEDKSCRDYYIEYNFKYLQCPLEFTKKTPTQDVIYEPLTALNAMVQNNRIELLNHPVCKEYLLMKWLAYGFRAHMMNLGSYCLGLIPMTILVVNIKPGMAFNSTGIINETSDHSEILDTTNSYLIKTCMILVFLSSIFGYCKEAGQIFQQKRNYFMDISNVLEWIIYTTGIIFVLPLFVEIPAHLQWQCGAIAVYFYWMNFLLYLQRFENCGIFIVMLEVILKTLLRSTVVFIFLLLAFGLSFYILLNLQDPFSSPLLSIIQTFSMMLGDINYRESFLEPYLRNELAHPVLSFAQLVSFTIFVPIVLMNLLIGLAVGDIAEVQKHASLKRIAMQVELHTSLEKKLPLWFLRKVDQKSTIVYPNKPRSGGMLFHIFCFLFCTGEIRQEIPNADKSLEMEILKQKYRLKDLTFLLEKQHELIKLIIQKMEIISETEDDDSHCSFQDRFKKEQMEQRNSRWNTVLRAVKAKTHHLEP
Procedure: as §1, §2, §3, §4

| IC50 [1] | inhibition at 1 µM [2] | inhibition at 10 µM [2] | IC50 [2] | inhibition at 1 µM [1] | inhibition at 10 µM [1] | Compound |
| --- | --- | --- | --- | --- | --- | --- |
| < 0.05 µM | 98.2% | 98.1% | < 0.05 µM | – | – | Cn1c(=O)c2c(CC(=O)Nc3nc(-c4ccc(F)c(C(F)(F)F)c4F)cs3)csc2n(C)c1=O [Example 13, N-{4-[2,4-Difluoro-3-(trifluoromethyl)phenyl]-1,3-thiazol-2-yl}-2-(1,3-dimethyl-2,4-dioxo-1,2,3,4-tetrahydrothieno[2,3-d]pyrimidin-5-yl)acetamide] |
| – | 99.1% | 99.1% | < 0.05 µM | 38.7% | 98.7% | Cn1c(=O)c2c(CC(=O)Nc3nc(-c4cc(F)c(C(F)(F)F)c(F)c4)cs3)csc2n(C)c1=O [Example 16, N-{4-[3,5-Difluoro-4-(trifluoromethyl)phenyl]-thiazol-2-yl}-2-(1,3-dimethyl-2,4-dioxo-1,2,3,4-tetrahydrothieno[2,3-d]pyrimidin-5-yl)acetamide] |
| 0.05 to 0.5 µM | 97.5% | 98.8% | 0.05 to 0.5 µM | 93.1% | 99.2% | Cc1sc2c(c1CC(=O)Nc1nc(-c3ccc(C(C)(C)C)cc3)cs1)c(=O)n(C)c(=O)n2C [Example 17, N-[4-(4-tert-Butylphenyl)-1,3-thiazol-2-yl]-2-(1,3,6-trimethyl-2,4-dioxo-1,2,3,4-tetrahydrothieno[2,3-d]pyrimidin-5-yl)acetamide] |
| – | 98.5% | 100% | 0.05 to 0.5 µM | 95.7% | 100% | Cc1sc2c(c1CC(=O)Nc1nc(-c3cccc(OC(F)(F)F)c3)cs1)c(=O)n(C)c(=O)n2C [Example 18, N-{4-[3-(Trifluoromethoxy)phenyl]-1,3-thiazol-2-yl}-2-(1,3,6-trimethyl-2,4-dioxo-1,2,3,4-tetrahydrothieno[2,3-d]pyrimidin-5-yl)acetamide] |
| – | 95% | 98.2% | 0.05 to 0.5 µM | 89.4% | 99.2% | Cc1sc2c(c1CC(=O)Nc1nc(-c3ccc(Cl)cc3)cs1)c(=O)n(C)c(=O)n2C [Example 19, N-[4-(4-Chlorophenyl)-1,3-thiazol-2-yl]-2-(1,3,6-trimethyl-2,4-dioxo-1,2,3,4-tetrahydrothieno[2,3-d]pyrimidin-5-yl)acetamide] |
| 0.05 to 0.5 µM | 99% | 99.6% | < 0.05 µM | 83.4% | 91.2% | Cc1sc2c(c1CC(=O)Nc1nc(-c3ccc(Cl)c(Cl)c3)cs1)c(=O)n(C)c(=O)n2C [Example 20, N-[4-(3,4-Dichlorophenyl)-1,3-thiazol-2-yl]-2-(1,3,6-trimethyl-2,4-dioxo-1,2,3,4-tetrahydrothieno[2,3-d]pyrimidin-5-yl)acetamide] |
| – | 95.4% | 100% | 0.05 to 0.5 µM | 93.5% | 99.7% | Cc1sc2c(c1CC(=O)Nc1nc(-c3cccc(F)c3F)cs1)c(=O)n(C)c(=O)n2C [Example 21, N-[4-(2,3-Difluorophenyl)-1,3-thiazol-2-yl]-2-(1,3,6-trimethyl-2,4-dioxo-1,2,3,4-tetrahydrothieno[2,3-d]pyrimidin-5-yl)acetamide] |
| – | 89.8% | 100% | 0.05 to 0.5 µM | 89.8% | 99.8% | Cc1sc2c(c1CC(=O)Nc1nc(-c3ccc(F)cc3F)cs1)c(=O)n(C)c(=O)n2C [Example 22, N-[4-(2,4-Difluorophenyl)-1,3-thiazol-2-yl]-2-(1,3,6-trimethyl-2,4-dioxo-1,2,3,4-tetrahydrothieno[2,3-d]pyrimidin-5-yl)acetamide] |
| 0.05 to 0.5 µM | 97.7% | 99% | < 0.05 µM | 100% | 99.7% | Cc1sc2c(c1CC(=O)Nc1nc(-c3ccc(F)c(C(F)(F)F)c3)cs1)c(=O)n(C)c(=O)n2C [Example 23, N-{4-[4-Fluoro-3-(trifluoromethyl)phenyl]-1,3-thiazol-2-yl}-2-(1,3,6-trimethyl-2,4-dioxo-1,2,3,4-tetrahydrothieno[2,3-d]pyrimidin-5-yl)acetamide] |
| 0.05 to 0.5 µM | 98.5% | 99.9% | < 0.05 µM | 99.8% | 100% | Cc1sc2c(c1CC(=O)Nc1nc(-c3ccc(C(F)(F)F)c(F)c3)cs1)c(=O)n(C)c(=O)n2C [Example 24, N-{4-[3-Fluoro-4-(trifluoromethyl)phenyl]-1,3-thiazol-2-yl}-2-(1,3,6-trimethyl-2,4-dioxo-1,2,3,4-tetrahydrothieno[2,3-d]pyrimidin-5-yl)acetamide] |
| 0.05 to 0.5 µM | 98.5% | 98.8% | < 0.05 µM | 99.2% | 99.3% | Cc1sc2c(c1CC(=O)Nc1nc(-c3ccc(F)c(OC(F)(F)F)c3)cs1)c(=O)n(C)c(=O)n2C [Example 25, N-{4-[4-Fluoro-3-(trifluoromethoxy)phenyl]-1,3-thiazol-2-yl}-2-(1,3,6-trimethyl-2,4-dioxo-1,2,3,4-tetrahydrothieno[2,3-d]pyrimidin-5-yl)acetamide] |
| 0.05 to 0.5 µM | 100% | 100% | < 0.05 µM | 98.2% | 98.1% | Cc1sc2c(c1CC(=O)Nc1nc(-c3ccc(OC(F)(F)F)c(F)c3)cs1)c(=O)n(C)c(=O)n2C [Example 26, N-{4-[3-Fluoro-4-(trifluoromethoxy)phenyl]-1,3-thiazol-2-yl}-2-(1,3,6-trimethyl-2,4-dioxo-1,2,3,4-tetrahydrothieno[2,3-d]pyrimidin-5-yl)acetamide] |
| 0.05 to 0.5 µM | 93.2% | 99.1% | < 0.05 µM | 97.9% | 98% | Cc1sc2c(c1CC(=O)Nc1nc(-c3ccc(F)c(C(F)(F)F)c3F)cs1)c(=O)n(C)c(=O)n2C [Example 27, N-{4-[2,4-Difluoro-3-(trifluoromethyl)phenyl]-1,3-thiazol-2-yl}-2-(1,3,6-trimethyl-2,4-dioxo-1,2,3,4-tetrahydrothieno[2,3-d]pyrimidin-5-yl)acetamide] |
| – | 88.9% | 98.4% | 0.05 to 0.5 µM | 46.4% | 83.6% | CCc1sc2c(c1CC(=O)Nc1nc(-c3ccc(C#N)cc3)cs1)c(=O)n(C)c(=O)n2C [Example 30, N-[4-(4-Cyanophenyl)-1,3-thiazol-2-yl]-2-(6-ethyl-1,3-dimethyl-2,4-dioxo-1,2,3,4-tetrahydrothieno[2,3-d]pyrimidin-5-yl)acetamide] |
| 0.05 to 0.5 µM | 98% | 98.5% | < 0.05 µM | 96.8% | 97.3% | CCc1sc2c(c1CC(=O)Nc1nc(-c3ccc(C(F)(F)F)c(F)c3)cs1)c(=O)n(C)c(=O)n2C [Example 31, N-{4-[3-Fluoro-4-(trifluoromethyl)phenyl]-1,3-thiazol-2-yl}-2-(6-ethyl-1,3-dimethyl-2,4-dioxo-1,2,3,4-tetrahydrothieno[2,3-d]pyrimidin-5-yl)acetamide] |
| < 0.05 µM | 99.2% | 99.3% | < 0.05 µM | 99.9% | 98.8% | CCc1sc2c(c1CC(=O)Nc1nc(-c3ccc(F)c(C(F)(F)F)c3F)cs1)c(=O)n(C)c(=O)n2C [Example 32] |
| 0.05 to 0.5 µM | 96.9% | 96.9% | < 0.05 µM | 96.5% | 97.3% | CCc1sc2c(c1CC(=O)Nc1nc(-c3cc(F)c(OC(F)F)c(F)c3)cs1)c(=O)n(C)c(=O)n2C [Example 33, N-{4-[4-(Difluoromethoxy)-3,5-difluorophenyl]-1,3-thiazol-2-yl}-2-(6-ethyl-1,3-dimethyl-2,4-dioxo-1,2,3,4-tetrahydrothieno[2,3-d]pyrimidin-5-yl)acetamide] |
| 0.05 to 0.5 µM | 97.4% | 98.4% | < 0.05 µM | 88.7% | 93.3% | CCc1sc2c(c1CC(=O)Nc1nc(-c3cc(F)c(OCC(F)(F)F)c(F)c3)cs1)c(=O)n(C)c(=O)n2C [Example 34, N-{4-[3,5-Difluoro-4-(2,2,2-trifluoroethoxy)phenyl]-1,3-thiazol-2-yl}-2-(6-ethyl-1,3-dimethyl-2,4-dioxo-1,2,3,4-tetrahydrothieno[2,3-d]pyrimidin-5-yl)acetamide] |
